The NIST ThermoML archive (doi:10.1021/je3000469)

Experiments:
[1] = wn = mass fraction of the nth substance listed; details: 101 kPa, w1 = 0.561; for viscosity: Capillary tube (Ostwald / Ubbelohde) method; for mass density: Vibrating tube method
[2] = molar heat capacity at constant pressure; wn = mass fraction of the nth substance listed; details: 101 kPa, w1 = 0.561

O=[N+]([O-])[O-].[Li+] [lithium nitrate] + O
Details | mass density [kg/m3] | molar heat capacity at constant pressure [J/K/mol] | thermal conductivity [W/m/K] | viscosity [mPa·s]
[1], 253.2 K, Crystal of intercomponent compound 1, Hot disk method | – | – | 0.76 | –
[1], 263.2 K, Crystal of intercomponent compound 1, Hot disk method | – | – | 0.74 | –
[1], 273.2 K, Crystal of intercomponent compound 1, Hot disk method | – | – | 0.77 | –
[1], 283.2 K, Crystal of intercomponent compound 1, Hot disk method | – | – | 0.76 | –
[1], 293.2 K, Crystal of intercomponent compound 1, Hot disk method | – | – | 0.75 | –
[1], 294.2 K, Crystal of intercomponent compound 1, Hot disk method | – | – | 0.82 | –
[1], 308.2 K, Liquid | 1425 | – | – | 5.34
[1], 313.2 K, Liquid | 1420 | – | – | 4.8
[1], 318.2 K, Liquid | 1413 | – | – | 4.37
[1], 323.2 K, Liquid | 1408 | – | – | 3.96
[1], 328.2 K, Liquid | 1402 | – | – | 3.6
[1], 333.2 K, Liquid | 1395 | – | – | 3.31
[1], 338.2 K, Liquid | 1390 | – | – | 3.06
[1], 343.2 K, Liquid | 1384 | – | – | 2.84
[1], 348.2 K, Liquid | 1378 | – | – | 2.63
[1], 353.2 K, Liquid | 1372 | – | – | 2.46
[2], 253.2 K, Crystal of intercomponent compound 1, Small sample (50 mg) DSC | – | 48.92 | – | –
[2], 263.2 K, Crystal of intercomponent compound 1, Small sample (50 mg) DSC | – | 50.15 | – | –
[2], 273.2 K, Crystal of intercomponent compound 1, Small sample (50 mg) DSC | – | 51.38 | – | –
[2], 283.2 K, Crystal of intercomponent compound 1, Small sample (50 mg) DSC | – | 52.61 | – | –
[2], 288.2 K, Crystal of intercomponent compound 1, Small sample (50 mg) DSC | – | 53.22 | – | –

Liquid
Details | molar heat capacity at constant pressure [J/K/mol] | thermal conductivity [W/m/K]
[1], 308.2 K, hot wire | – | 0.584
[1], 313.2 K, hot wire | – | 0.581
[1], 318.2 K, hot wire | – | 0.587
[1], 323.2 K, hot wire | – | 0.583
[1], 328.2 K, hot wire | – | 0.585
[1], 333.2 K, hot wire | – | 0.588
[1], 338.2 K, hot wire | – | 0.588
[1], 343.2 K, hot wire | – | 0.588
[1], 348.2 K, hot wire | – | 0.595
[1], 353.2 K, hot wire | – | 0.611
[2], 308.2 K, hot wire method | 89.52 | –
[2], 313.2 K, Small sample (50 mg) DSC | 84.91 | –
[2], 313.2 K, hot wire method | 89.52 | –
[2], 318.2 K, hot wire method | 90.45 | –
[2], 323.2 K, Small sample (50 mg) DSC | 85.22 | –
[2], 323.2 K, hot wire method | 90.45 | –
[2], 328.2 K, hot wire method | 91.06 | –
[2], 333.2 K, Small sample (50 mg) DSC | 84.91 | –
[2], 333.2 K, hot wire method | 91.68 | –
[2], 338.2 K, hot wire method | 91.99 | –
[2], 343.2 K, Small sample (50 mg) DSC | 85.22 | –
[2], 343.2 K, hot wire method | 92.29 | –
[2], 348.2 K, hot wire method | 93.22 | –
[2], 353.2 K, Small sample (50 mg) DSC | 84.91 | –
[2], 353.2 K, hot wire method | 94.45 | –
